These results are taken from publication PMC10717410, “TMC4 is a novel chloride channel involved in high-concentration salt taste sensation” (The Journal of Physiological Sciences : JPS, 2021).

What all share (assay type): cell-based
The target of assay [1] is T1, mouse TMC4 (mTMC4) (Mus musculus, UniProt Q7TQ65).
T1 construct: coding region from circumvallate papillae cDNA in pIRES2-AcGFP1 with IRES and GFP removed; transiently expressed in HEK293T with separate EGFP plasmid
T1 sequence (Q7TQ65 1-694): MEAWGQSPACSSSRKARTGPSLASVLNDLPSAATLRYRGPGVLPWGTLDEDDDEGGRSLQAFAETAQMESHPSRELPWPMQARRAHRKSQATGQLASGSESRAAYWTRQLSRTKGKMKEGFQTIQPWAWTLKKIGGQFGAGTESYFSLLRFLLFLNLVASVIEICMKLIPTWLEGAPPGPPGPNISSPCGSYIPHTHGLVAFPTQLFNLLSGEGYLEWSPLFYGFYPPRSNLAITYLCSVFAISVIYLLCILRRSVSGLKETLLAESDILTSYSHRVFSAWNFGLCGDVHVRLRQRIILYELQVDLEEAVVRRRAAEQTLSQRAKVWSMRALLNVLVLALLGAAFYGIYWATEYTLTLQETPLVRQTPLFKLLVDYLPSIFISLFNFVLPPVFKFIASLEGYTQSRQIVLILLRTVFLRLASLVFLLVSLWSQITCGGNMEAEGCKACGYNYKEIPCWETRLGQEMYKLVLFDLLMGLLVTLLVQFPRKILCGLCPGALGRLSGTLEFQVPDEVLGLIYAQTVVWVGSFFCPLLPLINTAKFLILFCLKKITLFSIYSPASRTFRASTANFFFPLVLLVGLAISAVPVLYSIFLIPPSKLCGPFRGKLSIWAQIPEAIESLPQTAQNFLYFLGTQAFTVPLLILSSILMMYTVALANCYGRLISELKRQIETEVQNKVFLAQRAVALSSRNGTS
The experiment in a line: whole-cell patch clamp, transfected HEK293T. The settings on record: pH 7.4 bath, pH 7.2 pipette, about 25 °C. Background: In patch-clamp work, channel activity is measured electrically.

In another assay the target is T2, human TMC4 (hTMC4) (Homo sapiens, UniProt Q7Z404).
T2 construct: coding region of purchased cDNA (Dharmacon) in pIRES2-AcGFP1 with IRES and GFP removed; transiently expressed in HEK293T
T2 sequence (Q7Z404 1-712): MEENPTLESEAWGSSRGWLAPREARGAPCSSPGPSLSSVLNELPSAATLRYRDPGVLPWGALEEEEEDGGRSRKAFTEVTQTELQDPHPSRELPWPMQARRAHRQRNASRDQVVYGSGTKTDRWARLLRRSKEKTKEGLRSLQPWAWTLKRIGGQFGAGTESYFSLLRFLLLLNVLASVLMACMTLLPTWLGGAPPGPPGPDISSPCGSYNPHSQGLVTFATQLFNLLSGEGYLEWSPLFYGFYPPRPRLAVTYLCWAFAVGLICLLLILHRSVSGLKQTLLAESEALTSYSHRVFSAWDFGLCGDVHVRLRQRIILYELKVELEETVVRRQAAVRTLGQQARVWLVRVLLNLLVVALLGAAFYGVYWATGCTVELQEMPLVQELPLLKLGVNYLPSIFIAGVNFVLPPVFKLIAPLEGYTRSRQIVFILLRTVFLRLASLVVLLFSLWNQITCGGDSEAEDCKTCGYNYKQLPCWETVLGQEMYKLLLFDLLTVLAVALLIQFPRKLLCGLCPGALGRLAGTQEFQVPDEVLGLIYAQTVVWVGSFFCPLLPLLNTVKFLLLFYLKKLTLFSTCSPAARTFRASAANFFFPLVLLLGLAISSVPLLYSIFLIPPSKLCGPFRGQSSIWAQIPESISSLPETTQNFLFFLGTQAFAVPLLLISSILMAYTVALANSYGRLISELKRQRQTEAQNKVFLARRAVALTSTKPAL
Briefly: whole-cell patch clamp, step pulses, transfected HEK293T. As to conditions: pH 7.4 bath, pH 7.2 pipette, about 25 °C; channel blocker.

Assay [2] concerns the target T1, mouse TMC4 (mTMC4). The assay is described as above. The settings on record: NMDG-Cl pipette, pH 7.4 bath, pH 7.2 pipette, about 25 °C, channel blocker.
Assay [3] deals with T1, mouse TMC4 (mTMC4). The experiment in a line: whole-cell patch clamp, bath chloride fully replaced by gluconate. As to conditions: permeating anion; NMDG-Cl pipette; pH 7.4 bath, about 25 °C.

Where a name gives a salt, the structure may show the parent alone.

For `CC(C)(C)C1CCc2c(sc(NC(=O)c3ccco3)c2C(=O)O)C1` (centres unmarked) [CaCC(inh)-A01], the “Iblocker/Icontrol at + 60 mV” value on mouse TMC4 (mTMC4) [1] was “mTMC4-mediated currents were inhibited by CaCC(inh)-A01”. For `CNCCC(Oc1ccc(C(F)(F)F)cc1)c1ccccc1` (centres unmarked) [Fluoxetine hydrochloride], the “Iblocker/Icontrol at + 60 mV” value on mouse TMC4 (mTMC4) [1] (100 μM compound) is “Fluoxetine hydrochloride and tannic acid also inhibited mTMC4-mediated currents”. With `O=C(O)c1cc([N+](=O)[O-])ccc1NCCCc1ccccc1` [NPPB, 5-nitro-2-(3-phenylpropylamino) benzoic acid], the current reduction entry on human TMC4 (hTMC4) was “hTMC4) also functions as a Cl^− channel with a similar voltage dependency and is inhibited by NPPB”. Also, the “Iblocker/Icontrol at + 60 mV” value at mouse TMC4 (mTMC4) [2] is reported as “mTMC4-mediated currents were strongly inhibited by the NPPB”.

Take `O=C(O)[C@H](O)[C@@H](O)[C@H](O)[C@H](O)CO` [gluconate]: the “whole-cell patch clamp, bath chloride fully replaced by gluconate” value at mouse TMC4 (mTMC4) [3] is recorded as “outward currents did not disappear even when the bath solution was completely substituted with Na-gluconate”.
